SMILES strings stand for the structures.

Here are results for one compound from publication PMC2642990, “The Glycogen-Binding Domain on the AMPK β Subunit Allows the Kinase to Act as a Glycogen Sensor” (Cell Metabolism, 2009).

The target of the assay is T1, recombinant α1β1γ1 complex with β1 GBD mutations (W100G/W133A and others) (Rattus norvegicus, UniProt P80386, W100G/W133A).
T1 construct: we made mutations in full-length β1 coexpressed with α1 and γ1 in CCL13 cells; made in house; host or cells: human CCL13 cells, co-transfected; isolated by anti-myc immunoprecipitation
T1 sequence (P80386 2-270 W100G/W133A): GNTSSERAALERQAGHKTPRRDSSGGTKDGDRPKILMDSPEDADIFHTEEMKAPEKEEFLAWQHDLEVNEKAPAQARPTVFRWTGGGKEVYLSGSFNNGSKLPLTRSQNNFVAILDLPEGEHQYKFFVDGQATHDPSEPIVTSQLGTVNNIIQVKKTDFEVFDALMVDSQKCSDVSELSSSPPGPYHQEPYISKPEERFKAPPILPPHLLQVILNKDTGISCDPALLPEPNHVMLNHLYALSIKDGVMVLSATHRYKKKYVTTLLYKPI
T1 sequence (P54645 whole entry partner): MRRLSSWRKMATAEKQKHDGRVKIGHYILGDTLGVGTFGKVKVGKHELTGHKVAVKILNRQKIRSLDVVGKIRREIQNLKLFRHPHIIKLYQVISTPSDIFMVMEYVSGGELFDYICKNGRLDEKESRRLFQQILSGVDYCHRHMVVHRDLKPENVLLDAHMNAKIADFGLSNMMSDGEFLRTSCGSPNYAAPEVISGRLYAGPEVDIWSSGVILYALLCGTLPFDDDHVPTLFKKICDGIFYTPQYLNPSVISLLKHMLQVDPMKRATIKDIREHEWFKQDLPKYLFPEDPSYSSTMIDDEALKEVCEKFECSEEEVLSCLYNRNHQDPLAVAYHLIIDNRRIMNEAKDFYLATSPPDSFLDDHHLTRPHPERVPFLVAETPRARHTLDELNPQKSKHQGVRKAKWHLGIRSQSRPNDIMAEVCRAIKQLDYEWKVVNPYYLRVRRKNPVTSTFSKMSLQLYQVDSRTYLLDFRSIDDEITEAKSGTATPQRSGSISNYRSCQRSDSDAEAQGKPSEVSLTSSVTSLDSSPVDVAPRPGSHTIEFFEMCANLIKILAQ
T1 sequence (P80385 whole entry partner): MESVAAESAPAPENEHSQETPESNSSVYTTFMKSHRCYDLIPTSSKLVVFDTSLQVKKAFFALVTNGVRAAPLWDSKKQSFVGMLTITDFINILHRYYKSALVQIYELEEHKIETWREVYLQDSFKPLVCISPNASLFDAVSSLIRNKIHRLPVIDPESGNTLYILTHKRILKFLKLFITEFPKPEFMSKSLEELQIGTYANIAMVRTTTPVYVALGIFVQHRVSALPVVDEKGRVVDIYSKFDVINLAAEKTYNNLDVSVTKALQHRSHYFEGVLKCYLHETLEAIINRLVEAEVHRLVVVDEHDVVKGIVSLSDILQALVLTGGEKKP
The experiment in a line: recombinant AMPK with GBD point mutations in β1, assayed in immunoprecipitates. Type of assay: biochemical. Conditions: 20 mM; Figure 5D. The source says:
To test whether mutations that interfered with the binding of glycogen to the GBD also affected inhibition of AMPK by glycogen, we made mutations in full-length β1 coexpressed with α1 and γ1 in CCL13 cells, isolated the complex by immunoprecipitation via the myc tag on α1, and assayed the kinase activity in the presence and absence of glycogen. The activities were adjusted to correct for slight variation in recovery of the α1 subunit assessed by blotting (inset in Figure 3A). […] Because all of these assays were conducted in resuspended immunoprecipitates, the degree of inhibition of the wild-type was < 50%, as discussed in the previous section. […]
Figure 3 Effect of β Subunit Mutations on Inhibition of Recombinant AMPK Complexes by Glycogen (A) Myc-α1, γ1, and β1 with the wild-type sequence or the indicated mutations were expressed in CCL13 cells, immunoprecipitated, and assayed ± bovine liver glycogen (200 mM glucose equivalents); results are mean ± SEM (n = 3). […] (C) Myc-α1, γ1, and β1 with the wild-type sequence or with W100G/W133A mutations were expressed in CCL13 cells, immunoprecipitated using anti-myc (left) or anti-FLAG (right) antibodies, and analyzed by western blotting using anti-myc antibodies (top panels) or a mixture of anti-β1 and -γ1 antibodies (bottom panels). […]

With `OC[C@H]1O[C@H](OC[C@H]2OC(O)[C@H](O)[C@@H](O)[C@@H]2O)[C@H](O)[C@@H](O)[C@@H]1O` (stereo partly shown) [isomaltose], the “inhibition of W100G/W133A mutant” value is “not”.
